From ChEMBL document CHEMBL1125981, “Enantioselective total synthesis and pharmacologic profile of 12-deoxy-12(S)-methyl leukotriene B4” (Bioorg Med Chem Lett, 1991)

Legend:
[1] = target: Leukotriene B4 receptor 1 (Homo sapiens, UniProt Q15722); test: Compound was tested for its antagonist activity in a LTB4 human neutrophil receptor binding assay using the natural ligand itself
[2] = organism: Homo sapiens; test: Compound was tested for its ability to inhibit human neutrophil degranulation induced by LTB4; type: functional

Chain of Leukotriene B4 receptor 1 (Q15722 whole entry): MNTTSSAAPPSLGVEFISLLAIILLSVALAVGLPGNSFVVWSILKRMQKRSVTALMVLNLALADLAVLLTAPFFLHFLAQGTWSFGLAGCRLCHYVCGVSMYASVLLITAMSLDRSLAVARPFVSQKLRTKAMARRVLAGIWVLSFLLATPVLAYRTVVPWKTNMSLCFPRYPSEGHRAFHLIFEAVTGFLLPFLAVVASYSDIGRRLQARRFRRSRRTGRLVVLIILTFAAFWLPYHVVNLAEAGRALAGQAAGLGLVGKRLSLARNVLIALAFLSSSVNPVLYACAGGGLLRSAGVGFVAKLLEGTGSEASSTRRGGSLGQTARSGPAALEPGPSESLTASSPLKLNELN

- IC50 [1]: 3.8 µM
- IC50 [2]: 3.4 µM
Structure (SMILES): CCCCC/C=C\C[C@@H](C)/C=C/C=C/C=C/[C@@H](O)CCCC(=O)O
